This note sets out measurements from patent publication US10392379B2, “Hepatitis B core protein modulators” (Assembly Biosciences, Inc., priority 2015, dated 2019).

Data set [1] deals with HBV. As to the kind of experiment: Viral load production in AD38 cells by quantitative PCR of the core sequence. Particulars: Hepatitis B virus, 144 h, 10 μM compound, 6 days, supernatant qPCR, relative to DMSO control, read-out: AD38 Viral Load (%) (VL with cmpd/VL in DMSO control) at 10 μM. It is filed as cell-based. Here is the method:
(§1) AD38 cells were then re-suspended with 10 mL of Treatment Medium and counted. Wells of a collagen coated 96-well NUNC microtiter plate were seeded at 50,000/well in 180 μL of Treatment Medium, and 20 μL of in treatment media with either 10% DMSO (Control) or a 10× solution of compound in 10% DMSO was added. Plates were incubated for 6 days at 37° C.
Viral load production was assayed by quantitative PCR of the core sequence. […] The PCR mixture was incubated at 45° C. for 5 minutes, then 95° C. for 10 min, followed by 40 cycles of 10 seconds at 95° C. and 20 seconds at 60° C. Viral load was quantitated against known standards by using ViiA™ 7 Software. Viral load in the supernatant from wells with treated cells were compared against viral load in supernatant from DMSO control wells (≥3 per plate).

The subject of data set [2] is AD38 cells. As to the kind of experiment: Viability of AD38 cells (Promega CellTiter-Glo). It is filed as cell-based. The note with it: 10 μM compound, 6 days, DMSO controls = 100%. On the procedure: as §1
At the end of compound treatment period cell viability was assessed using a Promega CellTiter-Glo protocol. All supernatant was removed the previously treated 96-well microtiter plate, and 50 μL Tetracycline-free treatment medium (DMEM/F12 (1:1), 1× Pen/step (cat#: 30-002-CL, Mediatech, Inc), with 2% FBS, Tet-system approved (cat#: 631106, Clontech), and 1% DMSO was added back to each well. Another 50 μL of CellTiter-Glo reagent solution (Promega, G7573) was then added at room temperature and the contents mixed for 2 minutes on an orbital shaker to induce cell lysis. This was followed by incubation at room temperature for 10 minutes to stabilize the luminescent signal. The luminescence was recorded for 0.2 seconds per well on a Tecan multimode platereader (Infinite M1000 pro). The luminescent signal from each well was normalized against that of untreated (DMSO) control wells. All results in Table 3 were reported with percent viability (with controls being 100%).
(Cellular ATP, detected with luciferase, serves as a proxy for viable cell number.)

In the case of `O=C(NCc1cccnc1)c1ccc2c(c1)NC(=O)c1ccccc1N2` [Compound 507], in data set [1], the activity at 10 µM was 51.9%. In addition, the “AD38 Viability Normalized Result (cmpd/DMSO %) at 10 μM” value in data set [2] worked out at 103%.
For `O=C(NCc1cncnc1)c1ccc2c(c1)NC(=O)c1cc(Cl)ccc1S2` [Compound 539], the activity at 10 µM in data set [1] turned out to be 0.2%. Further, in data set [2], the “AD38 Viability Normalized Result (cmpd/DMSO %) at 10 μM” value was 0%.
For `O=C(NCc1cnc(-c2ccc(O)cc2Cl)nc1)c1ccc2c(c1)NC(=O)c1ccccc1S2(=O)=O` [Compound 793], in that order: 3.5% and 103%.
On to `O=C(NCc1cnc(-c2ccc3[nH]cnc3c2)nc1)c1ccc2c(c1)NC(=O)c1ccccc1S2(=O)=O` [Compound 791], for which the activity at 10 µM in data set [1] is 2.2%. Moreover, the “AD38 Viability Normalized Result (cmpd/DMSO %) at 10 μM” value in data set [2] is recorded as 100%.
For `O=C(NCc1cccnc1)c1ccc2c(c1)NC(=O)c1ccc(Cl)cc1S2` [Compound 543], in that order: 1.2% and 24%.
On to `O=C(NCc1ccc(-c2ccc(O)c(F)c2)nc1)c1ccc2c(c1)NC(=O)c1ccccc1S2(=O)=O` [Compound 786], for which the activity at 10 µM in data set [1] turned out to be 5%. In addition, the “AD38 Viability Normalized Result (cmpd/DMSO %) at 10 μM” value in data set [2] is 105%.
For `O=C(NCc1ccc(Cc2ccc(O)cc2)nc1)c1ccc2c(c1)NC(=O)c1ccccc1S2(=O)=O` [Compound 825, N-((6-(4-hydroxybenzyl)pyridin-3-yl)methyl)-11-oxo-10,11-dihydrodibenzo[b,f][1,4]thiazepine-8-carboxamide 5,5-dioxide], in that order: 6.6% and 90%.
For `O=C(NCc1ccc(Cc2ccc(O)cc2)nc1)c1ccc2c(c1)NC(=O)c1ccccc1O2` [Compound 837, N-((6-(4-hydroxybenzyl)pyridin-3-yl)methyl)-11-oxo-10,11-dihydrodibenzo[b,f][1,4]oxazepine-8-carboxamide] the same measures were 0.9% and 108%.
For `O=C(NCc1cncnc1)c1ccc2c(c1)NC(=O)c1ccc(Cl)cc1S2` [Compound 542], in that order: 1.6% and 106%.
Turning to `O=C(NCc1nnc(-c2ccc(O)cc2)s1)c1ccc2c(c1)NC(=O)c1ccccc1S2(=O)=O` [Compound 807], in data set [1], the activity at 10 µM is 0.9%. Also, in data set [2], the “AD38 Viability Normalized Result (cmpd/DMSO %) at 10 μM” value is 96%.
For the compound `O=C(NCc1cnc(-c2ccc3[nH]ccc3c2)nc1)c1ccc2c(c1)NC(=O)c1ccccc1S2(=O)=O` [Compound 789], in data set [1], the activity at 10 µM was 0.4%. In data set [2], the “AD38 Viability Normalized Result (cmpd/DMSO %) at 10 μM” value is reported as 108%.
Consider `CC1c2ccc(C(=O)NCc3cccnc3)cc2NC(=O)c2ccccc21` (stereo not drawn) [Compound 547], for which the activity at 10 µM in data set [1] is 1.5%. Moreover, the “AD38 Viability Normalized Result (cmpd/DMSO %) at 10 μM” value in data set [2] was 99%.
